From patent US10959981B2, “Composition for preventing or treating climacteric symptoms comprising soybean extract comprising coumestrol as an active ingredient” (AMOREPACIFIC CORPORATION, priority 2014, dated 2021)

Key:
[1] = tested on: climacteric mouse models induced by oophorectomy; experiment: Body weight change of oophorectomy-induced climacteric mice over 14 weeks; assay type: in vivo; conditions: oophorectomized hairless mice; feed for 14 weeks; extract 500 mg/kg, coumestrol 0.5 mg/kg; FIG. 1
Protocol: Female hairless mice weighing 26-27 g were used as experimental animals. The experimental animals were bred under a condition of 23±1° C., 40-60% humidity and 12-hour light/dark cycles. Basic feed and drinking water were provided ad libitum. On the previous day before blood taking, drinking water was provided only. Oophorectomy was conducted aseptically after anesthetizing 15-week-old hairless mice and disinfecting with 70% ethanol. After incising skin tissue about 2-3 cm along the spinal cord below one lateral dorsal part, the muscle and peritoneum at the part where an ovary is located were incised by 1.5 cm to expose the ovary. After removing the ovary, the peritoneum, muscle and skin were sutured using silk suture. The ovary at the opposite side was also removed by the same method. For a control group, a sham operation of incising the muscle and peritoneum but suturing without removal of the ovary was conducted. After the surgical operation, the mice were allowed to recover for a week. […] The administration dosage for the coumestrol administration group was determined such that the amount of coumestrol in the germinated and fermented bean was the same as that of the coumestrol 0.5 mg/kg administration group (content of coumestrol in the germinated and fermented bean extract=0.1%; 500 mg/kg×0.1%=0.5 mg/kg). […]

[2] = tested on: climacteric mouse models induced by oophorectomy; experiment: Bone density by dual-energy X-ray absorptiometry in oophorectomized mice; assay type: in vivo; conditions: oophorectomized hairless mice, 30 weeks old; feed for 14 weeks; extract 500 mg/kg, coumestrol 0.5 mg/kg; control group 0.1975, oophorectomy group 0.1821
Protocol: (§1) Female hairless mice weighing 26-27 g were used as experimental animals. The experimental animals were bred under a condition of 23±1° C., 40-60% humidity and 12-hour light/dark cycles. Basic feed and drinking water were provided ad libitum. On the previous day before blood taking, drinking water was provided only.
(§2) Oophorectomy was conducted aseptically after anesthetizing 15-week-old hairless mice and disinfecting with 70% ethanol. After incising skin tissue about 2-3 cm along the spinal cord below one lateral dorsal part, the muscle and peritoneum at the part where an ovary is located were incised by 1.5 cm to expose the ovary. After removing the ovary, the peritoneum, muscle and skin were sutured using silk suture. The ovary at the opposite side was also removed by the same method. For a control group, a sham operation of incising the muscle and peritoneum but suturing without removal of the ovary was conducted. […]
(§3) The experimental animals were divided into the control group (sham operation group) and an oophorectomy group. […] The administration dosage for the coumestrol administration group was determined such that the amount of coumestrol in the germinated and fermented bean was the same as that of the coumestrol 0.5 mg/kg administration group (content of coumestrol in the germinated and fermented bean extract=0.1%; 500 mg/kg×0.1%=0.5 mg/kg). […]

[3] = tested on: climacteric mouse models induced by oophorectomy; experiment: Skin thickness measured with calipers in oophorectomized mice; assay type: in vivo; conditions: oophorectomized hairless mice, 30 weeks old; extract 500 mg/kg, coumestrol 0.5 mg/kg in feed for 14 weeks; FIG. 2
Protocol: as §1
as §2, with “method.” for “method. For a control group, a sham operation of incising the muscle and peritoneum but suturing without removal of the ovary was conducted.”
as §3
Skin thickness was measured for the same test group (30 weeks old) as that in Test Example 1 using calipers (HEPT, Cjina).

[4] = tested on: MMP-1; experiment: MMP-1 expression in UV-irradiated 3D artificial skin; assay type: cell-based; conditions: 20 mJ UV, 0.1 ppm coumestrol or 100 ppm extract, relative to the non-UV-irradiated group as 100, UV-irradiated group 142.4%
Protocol: (§4) It is known that the skin in the climacteric period is vulnerable to skin irritation such as UV because of decreased skin thickness. 3D artificial skin was prepared and the effect of the germinated and fermented bean extract on the skin was tested after UV irradiation.
(§5) A matrix was prepared by mixing 2.64×10^5 fibroblasts in a collagen solution. After seeding 5×10^6 keratinocytes thereon, differentiation into artificial skin was induced by treating with 1.2 mM calcium. 2 weeks later, after irradiating 20 mJ UV on the cells and treating with 0.1 ppm coumestrol or 100 ppm germinated and fermented bean extract, the culture medium was recovered and the expression levels of MMP-1 and procollagen were measured in the same manner as in Test Example 5. The result is given in Table 2 relative to the non-UV-irradiated group as 100.

[5] = tested on: procollagen; experiment: Procollagen expression in UV-irradiated 3D artificial skin; assay type: cell-based; conditions: 20 mJ UV, 0.1 ppm coumestrol or 100 ppm extract, relative to the non-UV-irradiated group as 100, UV-irradiated group 68.7%
Protocol: as §4, §5

O=c1oc2cc(O)ccc2c2oc3cc(O)ccc3c12 [coumestrol]
weight gain [1]: significantly less than that of the oophorectomy group | Bone density [2]: 0.1902 g/cm^2 | skin thickness [3]: the same as that of the oophorectomy group | MMP-1 [4]: 122.8% | Procollagen [5]: 82.4%
